Tests used:
[1] = tested on: fertilised sea urchin; conditions: fertilised sea urchin assay; background statement; cited from earlier work
[2] = tested on: P388 cell lines; conditions: cell line in culture; background statement; cited from earlier work
[3] = tested on: A549 cell lines; conditions: cell line in culture; background statement; cited from earlier work
[4] = tested on: lung cancer cell lines; conditions: acting as a Type IV microtubule poison; background statement; cited from earlier work

Row | Compound | cytotoxicity against P388 [2] | cytotoxicity against A549 [3] | other results
1 | COc1cc(-c2c3n(c4c(=O)oc5cc(O)c(OC)cc5c24)CCc2cc(OC)c(OC)cc2-3)ccc1O [Compound 35, 10-Deoxylamellarin K] |  |  | melting point: 292 to 294 °C
2 | COc1cc(-c2c3n(c4c(=O)oc5cc(O)c(OC)cc5c24)CCc2c-3cc(OC)c(OC)c2OC)ccc1O [Lamellarin C] |  |  | inhibition of cell division [1]: inhibition of cell division
3 | COc1cc(-c2c3c4cc(OC)c(O)cc4oc(=O)c3n3ccc4cc(O)c(OC)cc4c23)ccc1O [Lamellarin D] |  |  | inhibition of cell division [1]: inhibition of cell division
4 | COc1ccc(-c2c3n(c4c(=O)oc5cc(O)c(OC)cc5c24)CCc2cc(O)c(OC)cc2-3)cc1O [Lamellarin L] | comparable and significant cytotoxicity | comparable and significant cytotoxicity | 
5 | COc1ccc(-c2c3c4cc(OC)c(O)cc4oc(=O)c3n3ccc4cc(O)c(OC)cc4c23)cc1O [Lamellarin N] |  |  | activity in lung cancer cell lines [4]: exhibit activity
6 | Lamellarin I | comparable and significant cytotoxicity | comparable and significant cytotoxicity | 
7 | Lamellarin K | comparable and significant cytotoxicity | comparable and significant cytotoxicity | 
